{
  "source": "paper PMC10923054",
  "about": "“Antiplasmodial peptaibols act through membrane directed mechanisms” (Cell Chemical Biology, 2024)",
  "format_in_all_cases": "cell-based",
  "key": {"P. falciparum Dd2": {"system": "P. falciparum Dd2", "assay": "Phenotypic screen: asexual blood stage EC50 determination (SYBR Green I)", "details": "asynchronous culture, 1% parasitemia, 1% hematocrit, 72 h, SYBR Green I; mean ± SEM, biological triplicate", "experimental": "Asexual blood stage parasites grown in the Chakrabarti laboratory were cultured based on a protocol by Trager and Jensen[57] with some modifications.[35] Culture was maintained at 4% hematocrit with human A+ whole blood obtained from the Florida OneBlood, in RPMI 1640 supplemented with 25 mM HEPES pH 7.4, 26 mM NaHCO3, 2% dextrose, 15 mg/L hypoxanthine, 25 mg/L gentamycin, and 0.5% Albumax II. Incubator conditions remained at 37°C and 5% CO2, 5% O2, 90% N2, or 95% air. For comparison screening using serum vs Albumax II, culture media was changed from RPMI with 0.5% Albumax II to RPMI with 10% human serum and maintained for a minimum of 2 weeks prior to assay use.\nInhibitor EC50 determination in 3D7 and Dd2 was performed as discussed in,[35] based on established protocols.[60] Assays utilized asynchronous culture at 1% parasitemia, 1% hematocrit. Culture was incubated with compound dilutions for 72 h followed by freezing at −80°C to promote lysis, then thawing and incubation for 45 min–1 h with 1× SYBR Green I in a lysis buffer (20 mM Tris-HCL, 0.08% saponin, 5 mM EDTA, and 0.8% Triton X-100). Fluorescence was read 485 nm excitation, 530 nm emission on a Synergy Neo2 multimode reader (BioTek Winsooki, VT) and EC50 curves were generated using CDD Vault (https://www.collaborativedrug.com/)."}, "[1]": {"system": "P. falciparum 3D7 transcriptome", "assay": "RNASeq analysis of treated culture", "details": "3D7, 1 h, EC50 concentration, vs vehicle", "experimental": "P. falciparum 3D7 culture was synchronized as previously described[64] by combination of MACS column (Mitenyi Biotic, Auburn, CA)[65] and 5% sorbitol.[66] In brief, asynchronous culture with a majority ring stage population was centrifuged, pelleted, and resuspended in 5% sorbitol and incubated at room temp for 10 min. Parasites were then washed with culture media and returned to the culture incubator. For MACS column, columns were rinsed once with RPMI prior to parasite addition. After flow-through was complete, parasites on the column were eluted onto culture plates and returned to the culture incubator. […] RNA was then extracted using Direct-zol™ RNA Miniprep Plus (Zymo Research Corporation, Irvine, CA.) following manufacturers protocols. In brief, culture was lysed with 0.1% saponin and incubated for 5 min prior to centrifuging at 900 x g for 6 min at 4°C. Cells were washed once with RPMI then once with PBS before resuspension in triazole reagent. Samples were mixed vigorously for 5 min, centrifuged at 16,000 x g for 1 min, then transferred to a RNase free tube, and an equal volume of EtOH was added. After mixing, sample was loaded onto column and centrifuged at 16,000 x g for 30 sec then washed with pre-wash buffer. Columns were incubated with DNase buffer for 15 min then washed with pre-wash buffer. Two more wash steps were performed before allowing any excess EtOH to dry for 2 min. Finally, columns were transferred to a new RNase free tube in which RNA was eluted with RNase free water.\nPreliminary integrity and concentration determination was performed via nanodrop and RNA gel electrophoresis, prior to a full integrity check via Agilent Technologies 2100 Bioanalyzer. After rRNA depletion, RNA fragmentation was performed using elevated temperatures and divalent cation buffers. Library preparation was done using the Illumina TruSeq-stranded-total-RNA-sample preparation protocol, with Agilent Technologies 2100 Bioanalyzer High Sensitivity DNA Chip for quality control, and Illumina’s NovaSeq 6000 sequencing system for paired-ended sequencing. For transcript assembly, Cutadapt[71] and LC Sciences in house perl scripts were used to remove low quality or undetermined bases and reads, along with adaptor contamination. Sequence quality was then confirmed using FastQC.[72] Reads were mapped to the P. falciparum genome using Bowtie2[73] and HISAT2,[74] then assembled using StringTie.[75] To assist in the filtering process, the transcriptomes from HZ NPDG-I and the vehicle control were assembled simultaneously to construct a merged transcriptome using perl scripts and gffcompare.[76] Finally, StringTie[75] and edgeR[77] were used to estimate transcript expression levels by calculating FPKM using the following equation: FPKM=totalexonfragments/mappedreads(millions)xexonlength(kB)\nTo calculate p value, a parametric F-test comparing nested linear models was performed using edgeR.[77] The q-values were also calculated using a Benjamini-Hochberg procedure. Differential expression for mRNA was calculated at the gene level (all transcript isoforms grouped as 1 gene) and the transcript level (all transcript isoforms ranked individually). […] The coding potential of the remaining transcripts was then determined using CPC[78] and CNCI,[79] and transcripts with a CPC score <0.5 and/or CNCI score <0 were removed. […] The predicted cis-targets of the novel lncRNAs were then determined for the coding genes 100,000 bp upstream and downstream with perl script. […]"}, "[2]": {"system": "P. falciparum 3D7 transcripts", "assay": "Real-time quantitative PCR validation", "details": "normalized to serine-tRNA ligase; 3 biological replicates", "experimental": "For RT-qPCR validation, total RNA was extracted as previously described from vehicle and HZ NPDG-I treated samples collected for the RNASeq analysis. A total of 500 ng of RNA from each sample was reverse transcribed into cDNA using the SuperScript First-Strand Synthesis System for RT-PCR (Invitrogen, Waltham, MA) with 100 ng of random hexamers. Synthesized cDNA from each of the 3 biological replicates was tested using Select Master Mix (Life Technologies, Carlsbad, CA) with 400 nM of forward and reverse primers using a QuantStudio 7 Flex qPCR machine (Thermo Fisher, Waltham, MA). SYBR fluorescence was normalized to passive reference dye ROX. Ct values were normalized using the […] method by normalizing to housekeeping gene serine-tRNA ligase (PF3D7_0717700) and then normalizing between the treated and untreated controls. PCR parameters included 50°C for 2 min, 95°C for 10 min, followed by 40 cycles of 95°C for 15 s, 55°C for 30 seconds, and 60°C for 30 seconds. Primer pair sequences are listed in full in Table S5."}},
  "note": "Square brackets hold non-standard residues; d marks the D form. Peptide text beside a SMILES is read from it. Phe(ol) = N[C@H](CO)Cc1ccccc1; Leu(ol) = CC(C)C[C@H](N)CO; dIva = CC[C@@](C)(N)C(=O)O; Aib = CC(C)(N)C(=O)O",
  "data": [
    {"smiles": "CC(=O)NC(C)(C)C(=O)N1CCC[C@H]1C(=O)NC(C)(C)C(=O)N[C@@H](C)C(=O)NC(C)(C)C(=O)N[C@@H](C)C(=O)N[C@@H](CCC(N)=O)C(=O)NC(C)(C)C(=O)N[C@H](C(=O)NC(C)(C)C(=O)NCC(=O)N[C@@H](CC(C)C)C(=O)NC(C)(C)C(=O)N1CCC[C@H]1C(=O)N[C@H](C(=O)NC(C)(C)C(=O)NC(C)(C)C(=O)N[C@@H](CCC(=O)O)C(=O)N[C@@H](CCC(N)=O)C(=O)N[C@H](CO)Cc1ccccc1)C(C)C)C(C)C", "note": "[Alamethicin, reference compound] (Ac-[Aib]P[Aib]A[Aib]AQ[Aib]V[Aib]GL[Aib]PV[Aib][Aib]EQ[Phe(ol)]; N-terminus assumed)", "values": [
      {"measurement": "EC50", "setting": "P. falciparum Dd2", "result": "630 ± 50", "unit": "nM"}
    ]},
    {"smiles": "CC[C@H](C)[C@H](NC(=O)[C@H](CC(C)C)NC(=O)[C@H](CCC(N)=O)NC(=O)[C@@](C)(CC)NC(C)=O)C(=O)NC(C)(C)C(=O)N1CCC[C@H]1C(=O)N[C@](C)(CC)C(=O)N[C@@H](CC(C)C)C(=O)NC(C)(C)C(=O)N1CCC[C@H]1C(=O)N[C@H](CO)CC(C)C", "note": "[HZ NPDG-I, harzianin NPDG I] (Ac-[dIva]QLI[Aib]P[dIva]L[Aib]P[Leu(ol)])", "values": [
      {"measurement": "RNA-seq log2fc, PF3D7_0106100", "setting": "[1]", "result": "−1.35"},
      {"measurement": "RNA-seq log2fc, PF3D7_0519200.1", "setting": "[1]", "result": "−5.06"},
      {"measurement": "RNA-seq log2fc, PF37D_1419800.1", "setting": "[1]", "result": "−3.23"},
      {"measurement": "RNA-seq log2fc, lncRNA MSTRG.194.1", "setting": "[1]", "result": 16.51},
      {"measurement": "RNA-seq log2fc, lncRNA MSTRG.363.2", "setting": "[1]", "result": 14.54},
      {"measurement": "RT-qPCR mean fold change, F3D7_0106100", "setting": "[2]", "result": "−5.86"},
      {"measurement": "RT-qPCR mean fold change, MSTRG.194.1", "setting": "[2]", "result": 1.52},
      {"measurement": "RT-qPCR mean fold change, MSTRG.363.2", "setting": "[2]", "result": 2.56},
      {"measurement": "RT-qPCR mean fold change, PF3D7_0519200", "setting": "[2]", "result": "−22.26"},
      {"measurement": "RT-qPCR mean fold change, PF37D_1419800", "setting": "[2]", "result": "−7.27"}
    ]}
  ]
}
